In patent US20120294879A1, “CONSENSUS SEQUENCE FOR INFLUENZA A VIRUS” (priority 2009, published 2012):

Assays:
Format in all cases: cell-based
[1] = tested on: splenocytes of HLA-B7 (B*0702) transgenic mice; set-up: key to B7: average IFN-γ spots forming cells per million splenocytes: — represents no positive ELISpot response
[2] = tested on: splenocytes of HLA-DR2 (DRB1*1501) transgenic mice; set-up: key to DR2: average IFN-γ spots forming cells per million splenocytes: — represents no positive ELISpot response
[3] = tested on: splenocytes of HLA-DR4 (DRB1*0401) transgenic mice; set-up: key: — represents no positive ELISpot response
[4] = tested on: splenocytes of HLA-A24 (A*2402) transgenic mice; set-up: key to A24: average IFN-γ spots forming cells per million splenocytes: — represents no positive ELISpot response
[5] = tested on: splenocytes of HLA-DR3 (DRB1*0301) transgenic mice; set-up: key to DR3: average IFN-γ spots forming cells per million splenocytes: — represents no positive ELISpot response

Row | Sequence | B7: average IFN-γ spots forming cells per million splenocytes [1] | DR2: average IFN-γ spots forming cells per million splenocytes [2] | DR4: average IFN-γ spots forming cells per million splenocytes [3] | A24: average IFN-γ spots forming cells per million splenocytes [4] | DR3: average IFN-γ spots forming cells per million splenocytes [5] | DR3: lowest concentration of peptide giving positive ELISpot response in peptide titration [5] | DR2: lowest concentration of peptide giving positive ELISpot response in peptide titration [2] | A24: lowest concentration of peptide giving positive ELISpot response in peptide titration [4]
1 | APIMFSNKMARLGKGYM | — | — | — | — | 175 ± 0(0.1) IFN-γ spots forming cells per million splenocytes | 175 ± 0(0.1) μg/ml |  | 
2 | DKLTQGRQTYDWTLNRN | — | — | — | — | 142 ± 6(0.1) IFN-γ spots forming cells per million splenocytes | 142 ± 6(0.1) μg/ml |  | 
3 | DQSLIIAARNIVRRAAV | — | — | — | — | 169 ± 12(0.1) IFN-γ spots forming cells per million splenocytes | 169 ± 12(0.1) μg/ml |  | 
4 | DYRYTYRCHRGDTQIQT | — | 109 ± 13(1) IFN-γ spots forming cells per million splenocytes | 76 ± 2(0.1) IFN-γ spots forming cells per million splenocytes | — | 166 ± 22(0.1) IFN-γ spots forming cells per million splenocytes | 166 ± 22(0.1) μg/ml | 109 ± 13(1) μg/ml | 
5 | ESADMSIGVTVIKNNMI | — | 75 ± 10(0.1) IFN-γ spots forming cells per million splenocytes | — | — | — |  | 75 ± 10(0.1) μg/ml | 
6 | ESKSMKLRTQIPAEMLA | — | 84 ± 20(0.1) IFN-γ spots forming cells per million splenocytes | — | — | — |  | 84 ± 20(0.1) μg/ml | 
7 | EVHIYYLEKANKIKSEK | — | — | 37 ± 11(0.1) IFN-γ spots forming cells per million splenocytes | — | — |  |  | 
8 | EYDAVATTHSWVPKRNR | — | — | 59 ± 2(0.1) IFN-γ spots forming cells per million splenocytes | — | — |  |  | 
9 | FFYRYGFVANFSMELPS | — | — | — | 210 ± 25 IFN-γ spots forming cells per million splenocytes | — |  |  | (0.1) μg/ml
10 | GPAKNMEYDAVATTHSW | — | — | 41 ± 9(0.1) IFN-γ spots forming cells per million splenocytes | — | 142 ± 45(0.1) IFN-γ spots forming cells per million splenocytes | 142 ± 45(0.1) μg/ml |  | 
